Experimental data taken from PubChem BioAssay AID256 (DTP/NCI, 2004).
Values joined by “and” are separate entries in the source; they are usually repeats but may differ in a detail not shown here. Identical values can stand only once. Toxic doses and inconclusive results are not listed.

Tested on: CD2F1 mice, L1210 leukemia ip, survival T/C
Experiment: NCI In Vivo Anticancer Drug Screen. Data for tumor model L1210 Leukemia (intraperitoneal) in CD2F1 (CDF1) mice
Conditions: endpoint: mean survival time, higher = longer survival
Summary of the method: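 Ratio T/C, where T is the treated-group value and C the vehicle-dosed control value, from mice implanted with a transplantable tumor.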

[1] = dose: 100.0 mg/kg/injection, schedule: Q04DX003 (ip), vehicle: saline with Tween-80
[2] = dose: 200.0 mg/kg/injection, schedule: Q04DX003 (ip), vehicle: saline with Tween-80
[3] = dose: 400.0 mg/kg/injection, schedule: Q04DX003 (ip), vehicle: saline with Tween-80
[4] = dose: 50.0 mg/kg/injection, schedule: Q01DX001 (ip), vehicle: carboxymethylcellulose (CMC)
[5] = dose: 25.0 mg/kg/injection, schedule: Q01DX009 (ip), vehicle: saline with Tween-80
[6] = dose: 50.0 mg/kg/injection, schedule: Q01DX009 (ip), vehicle: saline with Tween-80
[7] = dose: 100.0 mg/kg/injection, schedule: Q01DX009 (ip), vehicle: saline with Tween-80
[8] = dose: 200.0 mg/kg/injection, schedule: Q01DX009 (ip), vehicle: saline with Tween-80
[9] = dose: 400.0 mg/kg/injection, schedule: Q01DX009 (ip), vehicle: saline with Tween-80
[10] = dose: 100.0 mg/kg/injection, schedule: Q01DX009 (ip), vehicle: saline
[11] = dose: 200.0 mg/kg/injection, schedule: Q01DX009 (ip), vehicle: saline
[12] = dose: 100.0 mg/kg/injection, schedule: Q04DX003 (ip), vehicle: saline sonified
[13] = dose: 200.0 mg/kg/injection, schedule: Q04DX003 (ip), vehicle: saline sonified
[14] = dose: 400.0 mg/kg/injection, schedule: Q04DX003 (ip), vehicle: saline sonified
[15] = dose: 100.0 mg/kg/injection, schedule: Q01DX009 (ip), vehicle: saline sonified
[16] = dose: 200.0 mg/kg/injection, schedule: Q01DX009 (ip), vehicle: saline sonified
[17] = dose: 400.0 mg/kg/injection, schedule: Q01DX009 (ip), vehicle: saline sonified
[18] = dose: 100.0 mg/kg/injection, schedule: Q04DX002 (ip), vehicle: saline with Tween-80
[19] = dose: 200.0 mg/kg/injection, schedule: Q04DX002 (ip), vehicle: saline with Tween-80
[20] = dose: 400.0 mg/kg/injection, schedule: Q04DX002 (ip), vehicle: saline with Tween-80

With `CCN(CC)CCC(=O)Nc1cccc2c1C(=O)c1c(c(O)c3ccccc3c1O)C2=O` the T/C (dose: 6.0 mg/kg/injection, schedule: Q04DX003 (ip), vehicle: saline with Tween-80) was 100 % of control, the T/C (dose: 12.0 mg/kg/injection, schedule: Q04DX003 (ip), vehicle: saline with Tween-80) was 100 % of control and the T/C (dose: 24.0 mg/kg/injection, schedule: Q04DX003 (ip), vehicle: saline with Tween-80) was 100 % of control. For the same compound, the T/C (dose: 48.0 mg/kg/injection, schedule: Q04DX003 (ip), vehicle: saline with Tween-80) was 103 % of control.
In the case of `O=C(COc1ccc(Br)cc1C(=O)O)Nc1ccccc1`, the T/C [1] is reported as 96 % of control, the T/C [2] is reported as 97 % of control and the T/C [3] is reported as 94 % of control.
In the case of `CN(C)N=Nc1cccc(C(N)=O)c1`, the T/C (dose: 5.0 mg/kg/injection, schedule: Q01DX009 (ip), vehicle: Klucel (hydroxypropylcellulose) (HPC)) is reported as 112 % of control, the T/C (dose: 10.0 mg/kg/injection, schedule: Q01DX009 (ip), vehicle: Klucel (hydroxypropylcellulose) (HPC)) is reported as 113 % of control and the T/C (dose: 20.0 mg/kg/injection, schedule: Q01DX009 (ip), vehicle: Klucel (hydroxypropylcellulose) (HPC)) is reported as 117 % of control. For the same compound, the T/C (dose: 80.0 mg/kg/injection, schedule: Q01DX009 (ip), vehicle: Klucel (hydroxypropylcellulose) (HPC)) was 113 % of control and the T/C (dose: 108.0 mg/kg/injection, schedule: Q01DX009 (ip), vehicle: Klucel (hydroxypropylcellulose) (HPC)) was 93 % of control.
For `CN(C)C1c2ccccc2-c2ccccc21`, the T/C [4] was 104 % of control, the T/C (dose: 100.0 mg/kg/injection, schedule: Q01DX001 (ip), vehicle: carboxymethylcellulose (CMC)) was 104 % of control and the T/C (dose: 200.0 mg/kg/injection, schedule: Q01DX001 (ip), vehicle: carboxymethylcellulose (CMC)) was 104 % of control. For the same compound, the T/C (dose: 400.0 mg/kg/injection, schedule: Q01DX001 (ip), vehicle: carboxymethylcellulose (CMC)) was 110 % of control.
With `COc1cc(C=Nc2ccc(-c3nc(C)sc3C)cc2)ccc1N(CCCl)CCCl` the T/C (dose: 25.0 mg/kg/injection, schedule: Q01DX001 (ip), vehicle: carboxymethylcellulose (CMC)) was 155 % of control and the T/C [4] was 97 % of control.
`COc1c2c(cc3c1C(O)N(C)CC3)OCO2` (configuration not stated) was tested, and the T/C (dose: 75.0 mg/kg/injection, schedule: Q01DX001 (ip), vehicle: saline) was 100 % of control and the T/C (dose: 150.0 mg/kg/injection, schedule: Q01DX001 (ip), vehicle: saline) was 110 % of control.
With `COC1(OC)C2C=CC1CC2` the T/C (dose: 12.5 mg/kg/injection, schedule: Q01DX009 (ip), vehicle: saline with Tween-80) was 105 % of control, the T/C [5] was 100 % of control and the T/C [6] was 109 % of control. For the same compound, the T/C [7] was 103 % of control, the T/C [8] was 103 % of control and the T/C [9] was 114 % of control.
In the case of `CCOC(=O)/C(C#N)=C1/C=Cc2ccccc2N1`, the T/C [7] is reported as 102 % of control, the T/C [1] is reported as 109 % of control and the T/C [8] is reported as 96 % of control. The T/C [2] was 97 % of control, the T/C [9] was 96 % of control and the T/C [3] was 97 % of control.
`C[S+](C)CC(=O)O` was tested, and the T/C [10] was 97 % of control, the T/C [11] was 101 % of control and the T/C (dose: 400.0 mg/kg/injection, schedule: Q01DX009 (ip), vehicle: saline) was 92 % of control.
`CC1(C)N=C(N)N=C(N)N1c1cccc(Cl)c1Cl` was tested, and the T/C (dose: 5.0 mg/kg/injection, schedule: Q04DX003 (ip), vehicle: saline) was 105 % of control, the T/C (dose: 10.0 mg/kg/injection, schedule: Q04DX003 (ip), vehicle: saline) was 112 % of control and the T/C (dose: 20.0 mg/kg/injection, schedule: Q04DX003 (ip), vehicle: saline) was 115 % of control.
With `CC(=O)/C=C/c1ccc([N+](=O)[O-])cc1` the T/C [12] was 102 % of control, the T/C [13] was 102 % of control and the T/C [14] was 95 % of control.
With `NC1=NCCCN1` the T/C (dose: 3.0 mg/kg/injection, schedule: Q01DX009 (ip), vehicle: saline sonified) was 109 % of control, the T/C (dose: 6.0 mg/kg/injection, schedule: Q01DX009 (ip), vehicle: saline sonified) was 111 % of control and the T/C (dose: 12.0 mg/kg/injection, schedule: Q01DX009 (ip), vehicle: saline sonified) was 94 % of control.
`CC(C)(C)[N+](Cc1ccccc1)(Cc1ccccc1)Cc1ccccc1` was tested, and the T/C [7] was 104 % of control, the T/C [8] was 96 % of control and the T/C [9] was 98 % of control.
With `O=C(CCl)Nc1cc(Cl)c(Cl)cc1Cl` the T/C [7] was 97 % of control, the T/C [8] was 94 % of control and the T/C [9] was 102 % of control.
With `O=C(O)NNC(=O)NO` the T/C [15] was 97 % of control, the T/C [16] was 103 % of control and the T/C [17] was 101 % of control.
With `CO[C@@]12[C@@H]3N[C@@H]3CN1C1=C(C(=O)C(NCC3CCCO3)=C(C)C1=O)[C@@H]2COC(N)=O` (some centres not stated) the T/C (dose: 1.5 mg/kg/injection, schedule: Q01DX001 (ip), vehicle: distilled water + Tween-80) was 111 % of control, the T/C (dose: 3.0 mg/kg/injection, schedule: Q01DX001 (ip), vehicle: distilled water + Tween-80) was 114 % of control and 116 % of control and the T/C (dose: 6.0 mg/kg/injection, schedule: Q01DX001 (ip), vehicle: distilled water + Tween-80) was 121 % of control. The T/C (dose: 36.0 mg/kg/injection, schedule: Q01DX001 (ip), vehicle: distilled water + Tween-80) was 158 % of control.
In the case of `COc1cc([N+](=O)[O-])c(C=O)c(C(=O)O)c1OC`, the T/C [7] is reported as 103 % of control, the T/C [1] is reported as 90 % of control and the T/C [8] is reported as 104 % of control. For the same compound, the T/C [2] was 98 % of control, the T/C [9] was 110 % of control and the T/C [3] was 107 % of control.
With `COc1ccc(C2(C#N)CCCC2)cc1` the T/C [15] was 94 % of control, the T/C [1] was 97 % of control and the T/C [16] was 102 % of control. The T/C [2] was 101 % of control, the T/C [17] was 96 % of control and the T/C [3] was 95 % of control.
In the case of `O=S(=O)(O)/[N+]([O-])=N/O`, the T/C [15] is reported as 103 % of control, the T/C [16] is reported as 95 % of control and the T/C [17] is reported as 101 % of control.
With `CNC(=O)C(=O)NC` the T/C [7] was 96 % of control, the T/C [1] was 101 % of control and the T/C [8] was 98 % of control. The T/C [2] was 98 % of control, the T/C [9] was 98 % of control and the T/C [3] was 101 % of control.
For `N#CCCC#N` (tested in a mixture with another compound), the T/C (dose: 50.0 mg/kg/injection, schedule: Q04DX002 (ip), vehicle: saline with Tween-80) was 96 % of control and 100 % of control, the T/C [18] was 96 % of control and 107 % of control and the T/C [19] was 100 % of control and 96 % of control. For the same compound, the T/C [20] was 92 % of control and 100 % of control.
With `CCOC(=O)Nc1cccc(F)c1C` the T/C [18] was 105 % of control, the T/C [19] was 109 % of control and the T/C [20] was 94 % of control.
With `COc1cc(-c2[o+]c3cc(O)cc(O)c3cc2OC2OC(CO)C(O)C(O)C2O)cc(OC)c1O` (configuration not stated) the T/C [5] was 94 % of control, the T/C [6] was 96 % of control and the T/C [7] was 96 % of control.
With `O=S(=O)(O)C(O)c1cccnc1` (configuration not stated) the T/C [7] was 98 % of control, the T/C [12] was 95 % of control and the T/C [8] was 96 % of control. The T/C [13] was 105 % of control, the T/C [9] was 95 % of control and the T/C [14] was 89 % of control.
`Cc1cccc(CCl)n1` was tested, and the T/C [10] was 98 % of control, the T/C (dose: 100.0 mg/kg/injection, schedule: Q04DX003 (ip), vehicle: saline) was 101 % of control and the T/C [11] was 90 % of control. The T/C (dose: 200.0 mg/kg/injection, schedule: Q04DX003 (ip), vehicle: saline) was 95 % of control and the T/C (dose: 400.0 mg/kg/injection, schedule: Q04DX003 (ip), vehicle: saline) was 87 % of control.
With `CCCc1nc2ccccc2c(=O)n1/N=C/c1ccsc1` the T/C [15] was 100 % of control, the T/C [16] was 102 % of control and the T/C [17] was 93 % of control.
